Reference: PMC6934184, “Selective DNA-PKcs inhibition extends the therapeutic index of localized radiotherapy and chemotherapy” (The Journal of Clinical Investigation, 2019)

Biological target: T1, CDK3/cyclin E1 (Homo sapiens, UniProt Q00526)
T1 construct: purchased Thermo Fisher Scientific (Life Technologies) SelectScreen
Experiment: SelectScreen LanthaScreen
Assay type: binding
Conditions: 1 µM
How it was run: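 NU5455 was profiled across the SelectScreen Broad panel of kinase activity and binding assays. Z'LYTE reactions such as CSF1R ran at apparent Km ATP, while the Adapta CAMK1 assay used ATP listed as 10. Values are given as percent.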

T1 sequence (Q00526 whole entry): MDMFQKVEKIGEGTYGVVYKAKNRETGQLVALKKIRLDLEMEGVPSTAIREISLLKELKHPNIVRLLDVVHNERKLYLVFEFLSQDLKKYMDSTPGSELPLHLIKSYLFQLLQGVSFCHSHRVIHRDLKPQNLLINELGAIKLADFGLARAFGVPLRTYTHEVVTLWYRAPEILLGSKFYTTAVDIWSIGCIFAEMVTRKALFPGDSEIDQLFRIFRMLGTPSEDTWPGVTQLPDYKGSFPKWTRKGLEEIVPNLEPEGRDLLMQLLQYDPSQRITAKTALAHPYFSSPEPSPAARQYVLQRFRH
T1 sequence (P24864 whole entry partner): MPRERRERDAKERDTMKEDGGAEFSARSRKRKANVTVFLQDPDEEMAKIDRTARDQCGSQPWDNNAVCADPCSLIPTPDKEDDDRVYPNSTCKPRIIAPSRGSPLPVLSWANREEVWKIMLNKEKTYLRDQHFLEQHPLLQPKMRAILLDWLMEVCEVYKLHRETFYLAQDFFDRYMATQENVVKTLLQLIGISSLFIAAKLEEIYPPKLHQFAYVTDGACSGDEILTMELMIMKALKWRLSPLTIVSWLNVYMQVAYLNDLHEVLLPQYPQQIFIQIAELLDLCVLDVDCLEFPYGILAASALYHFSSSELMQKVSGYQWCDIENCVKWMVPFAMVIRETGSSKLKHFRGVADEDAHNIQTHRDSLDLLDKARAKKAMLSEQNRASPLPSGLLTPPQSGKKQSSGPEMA

CN(C(=O)CN1CCOCC1)c1ccc2sc3c(-c4cccc5c(=O)cc(N6CC7CCC(C6)O7)oc45)cccc3c2c1 [NU5455]
% displacement: 1.9%
